According to publication PMC9815576, “Cell-surface protein YwfG of Lactococcus lactis binds to α-1,2-linked mannose” (PLOS ONE, 2023):
Values joined by “and” are separate entries in the source; they are usually repeats but may differ in a detail not shown here. Equal entries are not always repeated. “Also recorded” adds a separate entry of the source. Where two headings read alike, the source gives them in different places.

Tests used:
[1] = biological target: YwfG28–270 (L-type lectin domain of YwfG) (Lactococcus lactis subsp. lactis, UniProt S6FKX6); assay: Isothermal titration calorimetry (ITC) of sugars, mannan and mannoproteins against YwfG28–270; type: binding, Lactococcus lactis subsp. lactis G50; settings: for Interaction with YwfG28–270 observed by ITC: 100 μM YwfG28–270, 25°C; for ΔH, enthalpy change / ΔS, entropy change: YwfG28–270
Source text: (§1) A MicroCal iTC200 system (Malvern Panalytical, Almelo, Netherlands) was used to measure enthalpy changes associated with interactions between the YwfG variants and the following yeast cell-wall components: the monosaccharides D-glucose, D-galactose, D-mannose, D-fucose, N-acetyl-D-glucosamine (GlcNAc), and 2-(acetylamino)-2-deoxy-D-galactose (GalNAc) (Sigma-Aldrich); α-1,2-, α-1,3-, α-1,4-, and α-1,6-mannobiose (Dextra Laboratories, Reading, UK); mannan from S. cerevisiae (Sigma-Aldrich); and yeast mannoproteins.
(§2) A solution of YwfG variant (100 μM YwfG28–270, YwfG28–336, YwfG28–511, or MubR4 in 20 mM Tris-HCl [pH 7.5]) was placed in a 200-μL calorimeter cell, and test solution (10 mM for monosaccharides, 2 mM for monosaccharides and mannobioses, 10 mg mL^−1 for yeast mannan, OD280 1.0 for mannoproteins) was loaded into the injection syringe. The test solution was titrated into the sample cell as a sequence of 20 injections of 2-μL aliquots each. All experiments were performed at 25°C.

[2] = test system: YwfG28–336; assay: ITC of sugars against YwfG28–336; type: binding, Lactococcus lactis subsp. lactis G50; settings: 100 μM YwfG28–336, 25°C
Source text: as §1, §2

[3] = test system: YwfG28–511; assay: ITC of sugars against YwfG28–511; type: binding, Lactococcus lactis subsp. lactis G50; settings: 100 μM YwfG28–511, 25°C
Source text: as §1, §2

[4] = test system: MubR4 (YwfG residues 860–1034); assay: ITC of monosaccharides against MubR4; type: binding, Lactococcus lactis subsp. lactis G50; settings: 100 μM MubR4, 25°C
Source text: as §1, §2

[5] = test system: yeast X2180-1A; assay: Inhibition by sugars of yeast cell aggregation induced by YwfG variants; type: cell-based, Saccharomyces cerevisiae; settings: sugar 1 mM as printed
Procedure: Saccharomyces cerevisiae X2180-1A was cultured in YPD medium to an OD600 of 0.6.

[6] = test system: legume (L)-type lectin–like module of SraP; set-up: method as in PMID 24901708; settings: cited from earlier work
[7] = test system: yeast cells; assay: Aggregation of yeast cells by lactococcal cells; type: cell-based, Saccharomyces cerevisiae; settings: 1 mM
Procedure: Lactococcal cells were cultured in CDMG and suspended in PBS to an OD600 of 1.0.

[8] = ITC, 25°C, 100 μM YwfG28–270 in 20 mM Tris-HCl pH 7.5, D-mannose: fixed stoichiometry (N = 1)
[9] = ITC, 25°C, D-mannose: fixed stoichiometry (N = 1)
[10] = ITC, 25°C, 100 μM YwfG28–270 in 20 mM Tris-HCl pH 7.5, D-mannose: fixed stoichiometry (N = 1), read-out: KD, dissociation constant

Sequence of YwfG28–270 (L-type lectin domain of YwfG) (S6FKX6 entry or part of it): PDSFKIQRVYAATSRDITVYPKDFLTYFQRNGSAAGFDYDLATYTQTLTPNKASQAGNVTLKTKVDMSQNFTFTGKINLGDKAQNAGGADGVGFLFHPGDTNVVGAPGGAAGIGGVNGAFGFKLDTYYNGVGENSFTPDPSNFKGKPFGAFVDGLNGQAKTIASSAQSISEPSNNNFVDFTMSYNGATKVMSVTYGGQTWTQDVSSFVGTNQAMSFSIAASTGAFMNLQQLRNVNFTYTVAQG

SMILES | Interaction with YwfG28–270 observed by ITC [1] | Interaction with YwfG28–336 observed by ITC [2] | Interaction with YwfG28–511 observed by ITC [3] | Interaction with MubR4 observed by ITC [4] | Kd [1] [µM] | N (sites), stoichiometry [1, 8] | ΔH, enthalpy change [1, 9] [kcal/mol] | ΔS, entropy change [1, 9] [cal/mol/deg] | Inhibition of aggregation induced by YwfG28–336 [5] | Inhibition of aggregation induced by YwfG28–511 [5] | Binding to the L-type lectin–like module of SraP [6] | Inhibition of aggregation induced by L. lactis G50 [7] | Kd [1, 10]
C[C@H]1OC(O)[C@H](O)[C@@H](O)[C@H]1O (stereo partly drawn) [D-fucose] | only combination of variant and monosaccharide that showed an interaction was YwfG28–270 with D-mannose | only combination of variant and monosaccharide that showed an interaction was YwfG28–270 with D-mannose | only combination of variant and monosaccharide that showed an interaction was YwfG28–270 with D-mannose | only combination of variant and monosaccharide that showed an interaction was YwfG28–270 with D-mannose |  |  |  |  |  |  |  |  | 
O=C[C@H](O)[C@@H](O)[C@@H](O)[C@H](O)CO [D-galactose] | only combination of variant and monosaccharide that showed an interaction was YwfG28–270 with D-mannose | only combination of variant and monosaccharide that showed an interaction was YwfG28–270 with D-mannose | only combination of variant and monosaccharide that showed an interaction was YwfG28–270 with D-mannose | only combination of variant and monosaccharide that showed an interaction was YwfG28–270 with D-mannose |  |  |  |  |  |  |  |  | 
OC[C@H]1OC(O)[C@H](O)[C@@H](O)[C@@H]1O (stereo partly drawn) [D-glucose] | only combination of variant and monosaccharide that showed an interaction was YwfG28–270 with D-mannose | only combination of variant and monosaccharide that showed an interaction was YwfG28–270 with D-mannose | only combination of variant and monosaccharide that showed an interaction was YwfG28–270 with D-mannose | only combination of variant and monosaccharide that showed an interaction was YwfG28–270 with D-mannose |  |  |  |  |  |  |  |  | 
OC[C@H]1OC(O)[C@@H](O)[C@@H](O)[C@@H]1O (stereo partly drawn) [D-mannose] | only interaction observed; also recorded: showed an interaction | only combination of variant and monosaccharide that showed an interaction was YwfG28–270 with D-mannose | only combination of variant and monosaccharide that showed an interaction was YwfG28–270 with D-mannose | only combination of variant and monosaccharide that showed an interaction was YwfG28–270 with D-mannose | 500 ± 37 | (1.00) sites | -2.098 ± 0.08359 | 8.07 | inhibited | not by YwfG28–270 or YwfG28–511 was inhibited |  |  | 
CC(=O)N[C@@H](C=O)[C@@H](O)[C@@H](O)[C@H](O)CO [GalNAc, 2-(acetylamino)-2-deoxy-D-galactose] | only combination of variant and monosaccharide that showed an interaction was YwfG28–270 with D-mannose | only combination of variant and monosaccharide that showed an interaction was YwfG28–270 with D-mannose | only combination of variant and monosaccharide that showed an interaction was YwfG28–270 with D-mannose | only combination of variant and monosaccharide that showed an interaction was YwfG28–270 with D-mannose |  |  |  |  |  |  |  |  | 
CC(=O)N[C@@H]1[C@@H](O)[C@H](O)[C@@H](CO)O[C@@H]1O [GlcNAc, N-acetyl-D-glucosamine] | only combination of variant and monosaccharide that showed an interaction was YwfG28–270 with D-mannose | only combination of variant and monosaccharide that showed an interaction was YwfG28–270 with D-mannose | only combination of variant and monosaccharide that showed an interaction was YwfG28–270 with D-mannose | only combination of variant and monosaccharide that showed an interaction was YwfG28–270 with D-mannose |  |  |  |  |  |  |  |  | 
CC(=O)N[C@H]1[C@H]([C@H](O)[C@H](O)CO)OC(O)(C(=O)O)C[C@@H]1O (some centres unmarked) [N-acetylneuraminic acid] |  |  |  |  |  |  |  |  |  |  | specifically binds |  | 
CO[C@H]1O[C@H](CO)[C@@H](O)[C@H](O)[C@@H]1O [methyl α-D-mannoside] | only combination of variant and monosaccharide that showed an interaction was YwfG28–270 with D-mannose | only combination of variant and monosaccharide that showed an interaction was YwfG28–270 with D-mannose | only combination of variant and monosaccharide that showed an interaction was YwfG28–270 with D-mannose | only combination of variant and monosaccharide that showed an interaction was YwfG28–270 with D-mannose |  |  |  |  | inhibited | not by YwfG28–270 or YwfG28–511 was inhibited |  | inhibited | 
OC[C@H]1O[C@H](O[C@@H]2C(O)O[C@H](CO)[C@@H](O)[C@@H]2O)[C@@H](O)[C@@H](O)[C@@H]1O (stereo partly drawn) [α-1,2-mannobiose] | bound | No binding | No binding |  |  | 1.19 ± 0.0104 sites | -5.236 ± 0.06207 | 2.86 | clearly inhibited | clearly inhibited |  |  | 34 µM and 34.4 µM
OC[C@H]1O[C@H](O[C@H]2[C@H](O)[C@@H](CO)OC(O)[C@H]2O)[C@@H](O)[C@@H](O)[C@@H]1O (stereo partly drawn) [α-1,3-mannobiose] | bound | No binding | No binding |  |  | 0.757 ± 0.148 sites | -6.073 ± 1.387 | −3.15 | weakly inhibited | weakly inhibited |  |  | 172 ± 21 µM
OC[C@H]1O[C@H](O[C@H]2[C@H](O)[C@H](O)C(O)O[C@@H]2CO)[C@@H](O)[C@@H](O)[C@@H]1O (stereo partly drawn) [α-1,4-mannobiose] | bound | No binding | No binding |  |  | 1.82 ± 0.171 sites | -2.206 ± 0.3097 | 9.55 | weakly inhibited | weakly inhibited |  |  | 328 ± 91 µM
OC[C@H]1O[C@H](OC[C@H]2O[C@H](O)[C@@H](O)[C@@H](O)[C@@H]2O)[C@@H](O)[C@@H](O)[C@@H]1O [α-1,6-mannobiose] | bound | No binding | No binding |  |  | 1.21 ± 0.0839 sites | -4.235 ± 0.3728 | 2.62 | weakly inhibited | weakly inhibited |  |  | 210 ± 13 µM
